From ChEMBL document CHEMBL1143478, “Conformationally restricted anti-plasmodial chalcones” (Bioorg Med Chem Lett, 2005) come the findings set out here.

Each structure is given as a SMILES string. In brackets after ≈: the same amount, converted by molar mass.

This assay deals with Plasmodium falciparum. The assay can be described thus: In vitro antimalarial activity against Plasmodium falciparum 3D7. In kind it is functional, organism-based.
Turning to `COc1ccc(C(=O)/C=C/c2ccc(OC)cc2OC)cc1`, the IC50 (commonly the concentration that gives 50% inhibition) was 6 µg/mL (≈ 20.1 µM).

Turning to `COc1ccc(Br)cc1/C=C/C(=O)c1ccc(C)cc1`, the IC50 was determined as 10 µg/mL (≈ 30.2 µM).

Consider `COc1ccc(/C=C/C(=O)c2ccc(OC)cc2)cc1` [4,4'-DIMETHOXYCHALCONE], for which half-maximal inhibition (IC50) was put at 8.9 µg/mL (≈ 33.2 µM).

Take `COc1ccc(C(=O)C2=Cc3ccc(OC)cc3OC2)cc1`: the IC50 was 13.3 µg/mL (≈ 44.9 µM).

In the case of `O=C(C1=C(c2ccccc2)CCC1)c1ccccc1`, the IC50 came out at 35 µg/mL (≈ 141 µM).

`Cc1ccc(C(=O)C2=Cc3cc(Br)ccc3OC2)cc1` came in with an IC50 of 8.6 µg/mL (≈ 26.1 µM).

Consider `Cc1ccccc1C(=O)C1=Cc2cc(Br)ccc2OC1`, for which the midpoint of inhibition, the IC50, lay at 13.5 µg/mL (≈ 41 µM).

In turn, `COc1cccc(/C=C/C(=O)c2ccccc2C)c1OC` returned an IC50 of 11 µg/mL (≈ 39 µM).

Molecule `O=C(/C=C/c1ccccc1)c1ccccc1` [CHALCONE] had an IC50 of 6.7 µg/mL (≈ 32.2 µM).

Molecule `COc1cccc2c1OCC(C(=O)c1ccccc1C)=C2` came in with an IC50 of 15.1 µg/mL (≈ 53.9 µM).

`O=C(C1=Cc2ccccc2OC1)c1ccccc1`: the IC50 stood at 4.7 µg/mL (≈ 19.9 µM).

The molecule `COc1ccc(Br)cc1/C=C/C(=O)c1ccccc1C` came in with an IC50 of 9.3 µg/mL (≈ 28.1 µM).

In the case of `C=CC(C)(C)c1cc(/C=C/C(=O)c2ccc(O)cc2)c(OC)cc1O` [LICOAGROCHACONE A], half-maximal inhibition (IC50) required 2.2 µg/mL (≈ 6.5 µM).

On to `COc1ccccc1/C=C/C(=O)c1ccccc1`, for which the IC50 was 7.6 µg/mL (≈ 31.9 µM).

The molecule `COc1ccc(C(=O)C2=C(c3ccc(OC)cc3)CCC2)cc1` registered an IC50 greater than 100 µg/mL.
